Results reported in US9713648B2, “Weekly dosing regimens for anti-CD30 VC-PAB-MMAE antibody drug-conjugates” (Seattle Genetics, Inc., priority 2009, dated 2017).

Assays:
Type in all cases: in vivo, human
[1] = tested on: refractory or relapsed HL or systemicALCL; assay: Phase 1 weekly dosing, dose escalation study: best clinical response, all evaluable patients; conditions: for Best Clinical Response: CR / Best Clinical Response: PD / Best Clinical Response: PR / Best Clinical Response: SD: number of patients
Protocol: (§1) A multicenter, phase 1, weekly dosing, dose escalation study was conducted in pts with refractory or relapsed HL or systemicALCL. The cAC10-MC-vc-PAB-MMAE antibody drug conjugate was administered weekly at doses of 0.4-1.4 mg/kg (2-hr IV infusions). Patients with […] or better after two 21-day cycles (6 doses) were eligible to continue treatment with the antibody drug conjugate.
(§2) Results: In 34 patients, median age was 34 yrs (range 13-82). Patients received a median of 5 prior therapies; 62% received an autologous SCT. MTD was exceeded at 1.4 mg/kg.

[2] = tested on: HL; assay: Phase 1 weekly dosing study: response rate in HL patients; conditions: weekly 0.4-1.4 mg/kg
Protocol: as §1, §2

[3] = tested on: sALCL; assay: Phase 1 weekly dosing study: response rate in sALCL patients; conditions: sALCL patients (4/5), weekly 0.4-1.4 mg/kg
Protocol: as §1, §2

[4] = Phase 1 weekly dosing study: tolerability, adverse events, MTD/DLT
Protocol: as §1
The grade 4 events were neutropenia (1 subject), and hyperglycemia (1). The grade 3 events were neutropenia (3), diarrhea (1), paresthesia (1), vomiting (1), and leucopenia (1). The grade 2 or lower adverse events were nausea (9), fatigue (8), peripheral neuropathy (6), neutropenia (2), dizziness (4), hyperglycemia (3), and paresthesia (3). The dose limiting toxicity was at 1.4 mg/kg.

[5] = Phase 1 weekly dosing study: exposure (AUC); conditions: weekly doses of 0.4-1.4 mg/kg
Protocol: as §1, §2

[6] = Total of all dose groups 0.4-1.4 mg/kg, N=27
[7] = dose group 0.6 mg/kg weekly, N=3
[8] = dose group 1.0 mg/kg weekly, N=6
[9] = dose group 1.2 mg/kg weekly, N=5
[10] = dose group 1.4 mg/kg weekly, N=3
[11] = number of subjects among 34 treated patients

For “cAC10-MC-vc-PAB-MMAE: chimeric AC10 antibody conjugated to the drug MMAE through a MC-vc-PAB linker; anti-CD30 antibody-drug conjugate”, the “observed time to response” value ([1]; 1 mg/kg dose, weekly) was “approximately 8 wks”, the “Complete Response” value ([1]; All Patients (10/27), weekly 0.4-1.4 mg/kg) was 37% (10/27) and the “Overall Response Rate (CR + PR)” value ([1]; All Patients (13/27), weekly 0.4-1.4 mg/kg) was 48% (13/27). For the same substance, the “Tumor Reductions” value ([1]; All Patients (22/27), weekly 0.4-1.4 mg/kg) was 81% (22/27), the CRs observed ([1]; at higher doses) was “Multiple” and the “Best Clinical Response: CR” value [1, 6] was 10 ^. For the same substance, the “Best Clinical Response: PD” value [1, 6] was 3, the “Best Clinical Response: PR” value [1, 6] was 3 and the “Best Clinical Response: SD” value [1, 6] was 22. The “Best Clinical Response: SD” value ([1]; dose group 0.4 mg/kg weekly, N=4, includes 1 patient with ALCL) was 4^+, the “Best Clinical Response: PD” value [1, 7] was 1 and the “Best Clinical Response: PR” value [1, 7] was 1. The “Best Clinical Response: SD” value [1, 7] was 1, the “Best Clinical Response: PD” value ([1]; dose group 0.8 mg/kg weekly, N=6) was 1 and the “Best Clinical Response: SD” value ([1]; dose group 0.8 mg/kg weekly, N=6, 1 pediatric patient) was 1^P. For the same substance, the “Best Clinical Response: CR” value ([1]; dose group 0.8 mg/kg weekly, N=6, includes 2 patients with ALCL) was 4^++, the “Best Clinical Response: PR” value [1, 8] was 1 and the “Best Clinical Response: SD” value [1, 8] was 1. For the same substance, the “Best Clinical Response: CR” value ([1]; dose group 1.0 mg/kg weekly, N=6, includes 2 patients with ALCL) was 4^++, the “Best Clinical Response: PD” value [1, 9] was 1 and the “Best Clinical Response: PR” value [1, 9] was 1. The “Best Clinical Response: SD” value ([1]; dose group 1.2 mg/kg weekly, N=5, includes 1 pediatric patient) was 3^P, the “Best Clinical Response: CR” value [1, 10] was 2^ and the “Best Clinical Response: SD” value [1, 10] was 1. The “time within which multiple complete responses were observed” value ([1]; phase I study, weekly regimen) was no more than 8 weeks, the “Complete Response” value ([2]; HL Patients (6/22)) was 27% (6/22) and the “Overall Response Rate (CR + PR)” value ([2]; HL Patients (9/22)) was 41% (9/22). The “Complete Response” value [3] was 80% (4/5), the “Overall Response Rate (CR + PR)” value [3] was 80% (4/5) and the “grade 5 events” value ([4]; 34 treated patients) was “no grade 5 events”. For the same substance, the tolerability ([4]; 34 treated patients) was “generally well tolerated”, the “grade 2 or lower adverse events: dizziness” value [4, 11] was 4 and the “grade 2 or lower adverse events: fatigue” value [4, 11] was 8. For the same substance, the “grade 2 or lower adverse events: hyperglycemia” value [4, 11] was 3, the “grade 2 or lower adverse events: nausea” value [4, 11] was 9 and the “grade 2 or lower adverse events: neutropenia” value [4, 11] was 2. For the same substance, the “grade 2 or lower adverse events: paresthesia” value [4, 11] was 3, the “grade 2 or lower adverse events: peripheral neuropathy” value [4, 11] was 6 and the “grade 3 events: diarrhea” value [4, 11] was 1. The “grade 3 events: leucopenia” value [4, 11] was 1, the “grade 3 events: neutropenia” value [4, 11] was 3 and the “grade 3 events: paresthesia” value [4, 11] was 1. The “grade 3 events: vomiting” value [4, 11] was 1, the “grade 4 events: hyperglycemia” value [4, 11] was 1 and the “grade 4 events: neutropenia” value [4, 11] was 1 subject. The “dose limiting toxicity (dose at which it occurred)” value ([4]; weekly dosing) was 1.4 mg/kg, the “MTD (exceeded at)” value ([4]; weekly dosing, 2-hr IV infusions, 34 patients) was less than 1.4 mg/kg and the “Exposure (AUC)” value [5] was “increased relative to dose level”.
